# Reference: ChEMBL document CHEMBL3994622, “Design and synthesis of new RAF kinase-inhibiting antiproliferative quinoline derivatives. Part 2: Diarylurea derivatives” (Eur J Med Chem, 2017)
# Key:
# Type in all cases: functional
# SN12C = experiment: Growth inhibition of human SN12C cells assessed as cell growth at 50 uM incubated for 48 hrs by sulforhodamine B assay relative to control; conditions: read-out: Activity
# TK-10 = experiment: Growth inhibition of human TK10 cells assessed as cell growth at 0.05 uM incubated for 48 hrs by sulforhodamine B assay relative to control; conditions: TK-10, 48 h, read-out: Activity
# 786-0 = experiment: Growth inhibition of human 786-0 cells assessed as cell growth at 0.005 uM incubated for 48 hrs by sulforhodamine B assay relative to control; conditions: 786-0, 48 h, read-out: Activity
# SK-OV-3 = experiment: Growth inhibition of human SKOV3 cells assessed as cell growth at 5 uM incubated for 48 hrs by sulforhodamine B assay relative to control; conditions: SK-OV-3, 48 h, read-out: Activity
# NCI-H460 [1] = experiment: Growth inhibition of human NCI-H460 cells assessed as cell growth at 0.05 uM incubated for 48 hrs by sulforhodamine B assay relative to control; conditions: NCI-H460, 48 h, read-out: Activity
# HT-29 [2] = experiment: Growth inhibition of human HT-29 cells assessed as cell growth at 5 uM incubated for 48 hrs by sulforhodamine B assay relative to control; conditions: HT-29, 48 h, read-out: Activity
# NCI-H460 [3] = experiment: Growth inhibition of human NCI-H460 cells assessed as cell growth at 50 uM incubated for 48 hrs by sulforhodamine B assay relative to control; conditions: NCI-H460, 48 h, read-out: Activity
# A549 = experiment: Growth inhibition of human A549/ATCC cells assessed as cell growth at 0.5 uM incubated for 48 hrs by sulforhodamine B assay relative to control; conditions: A549, 48 h, read-out: Activity
# SNB-19 [4] = experiment: Growth inhibition of human SNB19 cells assessed as cell growth at 0.5 uM incubated for 48 hrs by sulforhodamine B assay relative to control; conditions: SNB-19, 48 h, read-out: Activity
# HOP-92 [5] = experiment: Growth inhibition of human HOP92 cells assessed as cell growth at 0.5 uM incubated for 48 hrs by sulforhodamine B assay relative to control; conditions: HOP-92, 48 h, read-out: Activity
# SF-539 = experiment: Growth inhibition of human SF539 cells assessed as cell growth at 50 uM incubated for 48 hrs by sulforhodamine B assay relative to control; conditions: SF-539, 48 h, read-out: Activity
# HOP-92 [6] = experiment: Growth inhibition of human HOP92 cells assessed as cell growth at 0.05 uM incubated for 48 hrs by sulforhodamine B assay relative to control; conditions: HOP-92, 48 h, read-out: Activity
# MDA-MB-231 [7] = experiment: Growth inhibition of human MDA-MB-231 cells assessed as cell growth at 50 uM incubated for 48 hrs by sulforhodamine B assay relative to control; conditions: MDA-MB-231, 48 h, read-out: Activity
# SF-295 [8] = experiment: Growth inhibition of human SF295 cells assessed as cell growth at 5 uM incubated for 48 hrs by sulforhodamine B assay relative to control; conditions: SF-295, 48 h, read-out: Activity
# OVCAR-3 = experiment: Growth inhibition of human OVCAR3 cells assessed as cell growth at 0.005 uM incubated for 48 hrs by sulforhodamine B assay relative to control; conditions: OVCAR-3, 48 h, read-out: Activity
# HT-29 [9] = experiment: Growth inhibition of human HT-29 cells assessed as cell growth at 0.005 uM incubated for 48 hrs by sulforhodamine B assay relative to control; conditions: HT-29, 48 h, read-out: Activity
# MCF7 = experiment: Growth inhibition of human MCF7 cells assessed as cell growth at 50 uM incubated for 48 hrs by sulforhodamine B assay relative to control; conditions: MCF7, 48 h, read-out: Activity
# SK-MEL-5 = experiment: Growth inhibition of human SK-MEL-5 cells assessed as cell growth at 0.5 uM incubated for 48 hrs by sulforhodamine B assay relative to control; conditions: SK-MEL-5, 48 h, read-out: Activity
# SR [10] = experiment: Growth inhibition of human SR cells assessed as cell growth at 5 uM incubated for 48 hrs by sulforhodamine B assay relative to control; conditions: read-out: Activity
# SR [11] = experiment: Growth inhibition of human SR cells assessed as cell growth at 50 uM incubated for 48 hrs by sulforhodamine B assay relative to control; conditions: read-out: Activity
# MDA-MB-231 [12] = experiment: Growth inhibition of human MDA-MB-231 cells assessed as cell growth at 0.05 uM incubated for 48 hrs by sulforhodamine B assay relative to control; conditions: MDA-MB-231, 48 h, read-out: Activity
# OVCAR-8 = experiment: Growth inhibition of human OVCAR8 cells assessed as cell growth at 0.05 uM incubated for 48 hrs by sulforhodamine B assay relative to control; conditions: OVCAR-8, 48 h, read-out: Activity
# MOLT-4 = experiment: Growth inhibition of human MOLT4 cells assessed as cell growth at 5 uM incubated for 48 hrs by sulforhodamine B assay relative to control; conditions: MOLT-4, 48 h, read-out: Activity
# SNB-75 = experiment: Growth inhibition of human SNB75 cells assessed as cell growth at 0.05 uM incubated for 48 hrs by sulforhodamine B assay relative to control; conditions: SNB-75, 48 h, read-out: Activity
# NCI-H522 = experiment: Growth inhibition of human NCI-H522 cells assessed as cell growth at 0.005 uM incubated for 48 hrs by sulforhodamine B assay relative to control; conditions: NCI-H522, 48 h, read-out: Activity
# NCI/ADR-RES [13] = experiment: Growth inhibition of human NCI/ADR-RES cells assessed as cell growth at 50 uM incubated for 48 hrs by sulforhodamine B assay relative to control; conditions: read-out: Activity
# NCI-H322M = experiment: Growth inhibition of human NCI-H322M cells assessed as cell growth at 5 uM incubated for 48 hrs by sulforhodamine B assay relative to control; conditions: read-out: Activity
# DU-145 = experiment: Growth inhibition of human DU145 cells assessed as cell growth at 5 uM incubated for 48 hrs by sulforhodamine B assay relative to control; conditions: DU-145, 48 h, read-out: Activity
# SNB-19 [14] = experiment: Growth inhibition of human SNB19 cells assessed as cell growth at 5 uM incubated for 48 hrs by sulforhodamine B assay relative to control; conditions: SNB-19, 48 h, read-out: Activity
# OVCAR-4 = experiment: Growth inhibition of human OVCAR4 cells assessed as cell growth at 5 uM incubated for 48 hrs by sulforhodamine B assay relative to control; conditions: OVCAR-4, 48 h, read-out: Activity
# NCI/ADR-RES [15] = experiment: Growth inhibition of human NCI/ADR-RES cells assessed as cell growth at 0.005 uM incubated for 48 hrs by sulforhodamine B assay relative to control; conditions: read-out: Activity
# SF-295 [16] = experiment: Growth inhibition of human SF295 cells assessed as cell growth at 0.05 uM incubated for 48 hrs by sulforhodamine B assay relative to control; conditions: SF-295, 48 h, read-out: Activity
# LOX IMVI = experiment: Growth inhibition of human LOXIMVI cells assessed as cell growth at 0.005 uM incubated for 48 hrs by sulforhodamine B assay relative to control; conditions: read-out: Activity
# HCT-116 = experiment: Growth inhibition of human HCT116 cells assessed as cell growth at 0.005 uM incubated for 48 hrs by sulforhodamine B assay relative to control; conditions: HCT-116, 48 h, read-out: Activity
# EKVX = experiment: Growth inhibition of human EKVX cells assessed as cell growth at 0.03 uM incubated for 48 hrs by sulforhodamine B assay relative to control; conditions: read-out: Activity
structure (smiles),measurement,setting,value
COc1cc2cc(Oc3ccc(NC(=O)Nc4cccc(C(F)(F)F)c4)cc3)c(C)nc2cc1OC,growth at 50 µM,SN12C,-21%
same,growth at 0.05 µM,TK-10,95%
same,growth at 0.005 µM,786-0,98%
same,growth at 5 µM,SK-OV-3,18%
same,growth at 0.05 µM,NCI-H460 [1],106%
same,growth at 5 µM,HT-29 [2],11%
same,growth at 50 µM,NCI-H460 [3],-60%
same,growth at 0.5 µM,A549,86%
same,growth at 0.5 µM,SNB-19 [4],96%
same,growth at 0.5 µM,HOP-92 [5],90%
same,growth at 50 µM,SF-539,-82%
same,growth at 0.05 µM,HOP-92 [6],96%
same,growth at 50 µM,MDA-MB-231 [7],-82%
same,growth at 5 µM,SF-295 [8],-14%
same,growth at 0.005 µM,OVCAR-3,101%
same,growth at 0.005 µM,HT-29 [9],100%
same,growth at 50 µM,MCF7,-89%
same,growth at 0.5 µM,SK-MEL-5,93%
same,growth at 5 µM,SR [10],-19%
same,growth at 50 µM,SR [11],-57%
same,growth at 0.05 µM,MDA-MB-231 [12],95%
same,growth at 0.05 µM,OVCAR-8,103%
same,growth at 5 µM,MOLT-4,4%
same,growth at 0.05 µM,SNB-75,99%
same,growth at 0.005 µM,NCI-H522,86%
same,growth at 50 µM,NCI/ADR-RES [13],-56%
same,growth at 5 µM,NCI-H322M,31%
same,growth at 5 µM,DU-145,32%
same,growth at 5 µM,SNB-19 [14],24%
same,growth at 5 µM,OVCAR-4,25%
same,growth at 0.005 µM,NCI/ADR-RES [15],105%
same,growth at 0.05 µM,SF-295 [16],91%
same,growth at 0.005 µM,LOX IMVI,98%
same,growth at 0.005 µM,HCT-116,100%
COc1cc2cc(Oc3ccc(NC(=O)Nc4ccc(Cl)c(C(F)(F)F)c4)cc3)c(C)nc2cc1OC,growth at 0.03 µM,EKVX,97%
